Reference: ChEMBL document CHEMBL1140503, “Discovery of 1,1-dioxo-1,2,6-thiadiazine-5-carboxamide derivatives as cannabinoid-like molecules with agonist and antagonist activity” (Bioorg Med Chem, 2007)
Calls of active or inactive are those of the source. The calls are words filed in the database; no cut-off is given here.

Columns and labels:
[1] = target: Cannabinoid receptor 1 (Mus musculus) (UniProt P47746); test: (§1) Agonist activity at CB1 receptor in ICR mouse vas deferens assessed as inhibition of electrically-stimulated contraction; format: functional, tissue-based
Sequence of Cannabinoid receptor 1 (Mus musculus) (P47746 whole entry): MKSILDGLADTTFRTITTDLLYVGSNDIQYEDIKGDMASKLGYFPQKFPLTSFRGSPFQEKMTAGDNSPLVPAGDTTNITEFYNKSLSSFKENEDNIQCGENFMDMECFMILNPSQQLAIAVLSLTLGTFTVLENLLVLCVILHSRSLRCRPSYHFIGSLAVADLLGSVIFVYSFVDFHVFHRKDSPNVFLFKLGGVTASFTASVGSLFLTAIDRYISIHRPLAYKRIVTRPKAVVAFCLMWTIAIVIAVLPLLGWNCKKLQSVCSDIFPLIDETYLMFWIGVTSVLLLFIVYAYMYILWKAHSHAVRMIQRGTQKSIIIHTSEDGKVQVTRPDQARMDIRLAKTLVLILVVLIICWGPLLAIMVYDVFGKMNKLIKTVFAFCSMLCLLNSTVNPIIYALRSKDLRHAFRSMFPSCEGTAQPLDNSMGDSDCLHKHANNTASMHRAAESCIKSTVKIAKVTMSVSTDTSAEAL

[2] = target: T1, Cannabinoid receptor 1 (Mus musculus, UniProt P47746); test: as §1; format: functional, tissue-based
T1 sequence (P47746 whole entry): as above

[3] = system: Mus musculus; test: Increase in locomotory activity in ICR mouse at 20 mg/kg, ip; format: functional, organism-based; parameters: dose 20 mg/kg
[4] = system: Mus musculus; test: Effect on cannabinoid behavioral sign in ICR mouse at 0.2 mg/kg, icv; format: functional, organism-based; parameters: dose 0.2 mg/kg
[5] = target: T1, Cannabinoid receptor 1; test: Antagonist activity at CB1 receptor in ICR mouse vas deferens assessed as reversal of WIN-55212-2-induced effect on electrically-stimulated contraction; format: functional, tissue-based; details: read-out: pA2 (converted)
[6] = Antagonism of WIN-55212-2 mediated antinociceptive activity in ICR mouse at 1 mg/kg ip dose; format: functional, organism-based; parameters: dose 1 mg/kg; details: filed as antagonist
[7] = system: Mus musculus; test: Antinociceptive activity in ICR mouse at 1.5 mg/kg, ip by hot plate test; format: functional, organism-based; parameters: dose 1.5 mg/kg
[8] = system: Mus musculus; test: Induction of hypothermic effect in ICR mouse at 1.5 mg/kg, ip; format: functional, organism-based; parameters: dose 1.5 mg/kg
[9] = system: Mus musculus; test: Inhibition of spontaneous motility in ICR mouse at 1.5 mg/kg, ip; format: functional, organism-based; parameters: dose 1.5 mg/kg
[10] = system: Mus musculus; test: Induction of catalepsy in ICR mouse at 1.5 mg/kg, ip by ring test; format: functional, organism-based; parameters: dose 1.5 mg/kg
[11] = system: Mus musculus; test: Prevention of spontaneous activity reduction in ICR mouse at 1 mg/kg, ip; format: functional, organism-based; parameters: dose 1 mg/kg

Row | Compound | Agonism [1] | EC50 [2] [µM] | further results
1 | CC12CCC(C1)C(C)(C)C2NC(=O)C1=NS(=O)(=O)N(Cc2ccc(Cl)cc2Cl)C(c2ccc(Cl)cc2)=C1 (stereo not given) | inactive |  | 
2 | CC12CCC(C1)C(C)(C)C2NC(=O)C1=NS(=O)(=O)N(Cc2ccccc2)C(c2ccc(Cl)cc2)=C1 (stereo not given) |  | 11.9 | Activity [3]: Active; Activity [4]: inactive
3 | O=C(NN1CCCCC1)C1=NS(=O)(=O)N(Cc2ccc(Cl)cc2Cl)C(c2ccc(Br)cc2)=C1 | inactive |  | 
4 | CC1=CC(C(=O)NN2CCOCC2)=NS(=O)(=O)N1Cc1ccccc1 | inactive |  | 
5 | O=C(NN1CCOCC1)C1=NS(=O)(=O)N(Cc2ccccc2)C(c2ccc(Br)cc2)=C1 | inactive |  | 
6 | CCCCCCN1C(c2ccc(Cl)cc2)=CC(C(=O)NN2CCCCC2)=NS1(=O)=O |  | 8.44 | Kb [5]: 0.209 µM
7 | Cc1c(C(=O)NN2CCCCC2)nn(-c2ccc(Cl)cc2Cl)c1-c1ccc(Cl)cc1 |  |  | Antagonism [6]: Antagonist
8 | CC1=CC(C(=O)NN2CCCCC2)=NS(=O)(=O)N1c1ccc(Cl)cc1 | inactive |  | 
9 | O=C(NN1CCCCC1)C1=NS(=O)(=O)N(Cc2ccc(Cl)cc2Cl)C(c2ccc(Cl)cc2)=C1 | inactive |  | 
10 | O=C(NN1CCCCC1)C1=NS(=O)(=O)N(Cc2ccccc2)C(c2ccc(Br)cc2)=C1 | inactive |  | 
11 | CC1=CC(C(=O)NN2CCCCC2)=NS(=O)(=O)N1C1CCCCC1 | inactive |  | 
12 | O=C(NN1CCCCC1)C1=NS(=O)(=O)N(Cc2ccccc2)C(c2ccc(Cl)cc2)=C1 |  | 13.5 | Kb [5]: 0.12 µM; Antagonism [6]: Antagonist
13 | Cc1c(C(=O)c2cccc3ccccc23)c2cccc3c2n1[C@H](CN1CCOCC1)CO3 |  |  | Activity [7]: Active; Activity [8]: Active; Activity [9]: Active; Activity [10]: Active; Activity [11]: Active
14 | Cc1cc(C2=CC(C(=O)NC3CCCCC3)=NS(=O)(=O)N2Cc2ccc(Cl)cc2Cl)ccc1Cl |  | 36.9 | 
15 | CC1=CC(C(=O)NN2CCCCC2)=NS(=O)(=O)N1Cc1ccccc1 | inactive |  | 
16 | CCCCCCN1C(C)=CC(C(=O)NN2CCCCC2)=NS1(=O)=O |  | 36.9 | 
17 | O=C(Nc1ccccc1)C1=NS(=O)(=O)N(Cc2ccccc2)C(c2ccc(Cl)cc2)=C1 |  | 5.73 | 
18 | Cc1cc(C2=CC(C(=O)NC3C4(C)CCC(C4)C3(C)C)=NS(=O)(=O)N2Cc2ccccc2)ccc1Cl (stereo not given) | inactive |  | 
19 | O=C(NN1CCCCC1)C1=NS(=O)(=O)N(C2CCCCC2)C(c2ccc(Br)cc2)=C1 |  | 38.4 | 
20 | CC1=CC(C(=O)NC2CCCCC2)=NS(=O)(=O)N1c1ccccc1 | inactive |  | 
21 | Cc1cc(C2=CC(C(=O)NN3CCCCC3)=NS(=O)(=O)N2Cc2ccccc2)ccc1Cl | inactive |  | 
